The source of these data is US20080318947A1, “Inhibitors of Akt Activity” (priority 2005, published 2008).

Assay in all cases: AKT enzyme assay (substrate phosphorylation, SPA)
What all share (assay type): biochemical

The target in one experiment is T1, AKT2 (Homo sapiens, UniProt P31751).
T1 construct: His-tagged AKT2 (aa 138-481) and His-tagged AKT3 (aa 135-479) are isolated; His; made in house; host or cells: insect cells (by 'similar fashion' to AKT1)
The following applies: 10 nM activated AKT enzyme, 4 uM ATP, 8 uM peptide, 40 minutes at room temperature; read-out: IC50 value against AKT2. As to the method: (§1) Compounds of the present invention are tested for AKT 1, 2, and 3 protein serine kinase inhibitory activity in substrate phosphorylation assays. This assay examines the ability of small molecule organic compounds to inhibit the serine phosphorylation of a peptide substrate. The substrate phosphorylation assays use the catalytic domains of AKT 1, 2, or 3. AKT 1, 2 and 3 are also commercially available from Upstate USA, Inc. The method measures the ability of the isolated enzyme to catalyze the transfer of the gamma-phosphate from ATP onto the serine residue of a biotinylated synthetic peptide SEQ. ID NO: 5 (Biotin-ahx-[…]-amide). Substrate phosphorylation is detected by the following procedure:
(§2) Assays are performed in 384 well U-bottom white plates. […] ATP/well, 1 mM CHAPS, 2 mM DTT, and 1 ul of test compound in 100% DMSO. The reaction is stopped by the addition of 50 ul SPA bead mix (Dulbecco's PBS without Mg^2+ and Ca^2+, 0.1% Triton X-100, 5 mM EDTA, 50 uM ATP, 2.5 mg/ml Streptavidin-coated SPA beads.) The plate is sealed, the beads are allowed to settle overnight, and then the plate is counted in a Packard Topcount Microplate Scintillation Counter (Packard Instrument Co., Meriden, Conn.).
(§3) The data for dose responses are plotted as % Control calculated with the data reduction formula 100*(U1−C2)/(C1−C2) versus concentration of compound where U is the unknown value, C1 is the average control value obtained for DMSO, and C2 is the average control value obtained for 0.1M EDTA. Data are fitted to the curve described by: y=((Vmax*x)/(K+x)) where Vmax is the upper asymptote and K is the IC50.

The target of a further experiment is T2, AKT3 (Homo sapiens, UniProt Q9Y243).
T2 construct: His-tagged AKT3 (aa 135-479) are isolated and purified in a similar fashion; His; made in house; host or cells: insect cells (by 'similar fashion' to AKT1)
T2 sequence (Q9Y243 135-479): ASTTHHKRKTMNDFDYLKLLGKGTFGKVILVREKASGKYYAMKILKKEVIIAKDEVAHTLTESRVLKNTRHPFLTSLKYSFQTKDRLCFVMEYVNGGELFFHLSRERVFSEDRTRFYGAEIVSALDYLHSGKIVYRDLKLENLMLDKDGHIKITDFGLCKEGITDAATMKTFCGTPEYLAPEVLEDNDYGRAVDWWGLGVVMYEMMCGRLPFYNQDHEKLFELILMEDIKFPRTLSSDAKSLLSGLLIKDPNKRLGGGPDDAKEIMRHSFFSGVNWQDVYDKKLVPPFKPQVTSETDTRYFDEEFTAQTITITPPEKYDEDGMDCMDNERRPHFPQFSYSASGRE
The following applies: 10 nM activated AKT enzyme, 4 uM ATP, 8 uM peptide, 40 minutes at room temperature; read-out: IC50 value against AKT3. The method, then:
as §1, §2, §3

The target of another experiment is T3, AKT1 (Homo sapiens, UniProt P31749).
T3 construct: Insect cells expressing His-tagged AKT1 (aa 136-480) are lysed; His; made in house; host or cells: insect cells
T3 sequence (P31749 136-480): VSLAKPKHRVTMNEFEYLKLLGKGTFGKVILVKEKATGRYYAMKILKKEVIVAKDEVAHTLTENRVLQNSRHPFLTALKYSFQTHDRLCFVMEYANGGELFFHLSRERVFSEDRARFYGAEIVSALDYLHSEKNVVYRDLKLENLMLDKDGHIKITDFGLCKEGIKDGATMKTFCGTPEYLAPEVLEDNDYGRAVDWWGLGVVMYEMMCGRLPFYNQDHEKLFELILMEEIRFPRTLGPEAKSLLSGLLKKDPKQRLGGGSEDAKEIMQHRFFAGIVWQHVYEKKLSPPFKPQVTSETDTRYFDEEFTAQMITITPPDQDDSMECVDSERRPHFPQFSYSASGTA
To be noted: 10 nM activated AKT enzyme, 4 uM ATP, 8 uM peptide, 40 minutes at room temperature; read-out: IC50 value against AKT1. The method, then: Cell debris are removed by centrifuging at 28,000×g for 30 minutes. The supernatant is filtered through a […] filter then loaded onto a nickel-chelating column pre-equilibrated with lysis buffer. The column is washed with 5 column volumes (CV) of lysis buffer then with 5 CV of 20% buffer B, where buffer B is 25 mM HEPES, 100 mM NaCl, 300 mM imidazole; pH 7.5. […] The sample is then chromatographed over a Q-Sepharose HP column pre-equilibrated with buffer C. The column is washed with 5 CV of buffer C then step eluted with 5 CV 10% D, 5 CV 20% D, 5 CV 30% D, 5 CV 50% D and 5 CV of 100% D; where buffer D is 25 mM HEPES, 1000 mM NaCl; pH 7.5. […] The protein is pooled, concentrated and frozen at −80 C.
as §1, §2, §3

T1 sequence (P31751 138-481): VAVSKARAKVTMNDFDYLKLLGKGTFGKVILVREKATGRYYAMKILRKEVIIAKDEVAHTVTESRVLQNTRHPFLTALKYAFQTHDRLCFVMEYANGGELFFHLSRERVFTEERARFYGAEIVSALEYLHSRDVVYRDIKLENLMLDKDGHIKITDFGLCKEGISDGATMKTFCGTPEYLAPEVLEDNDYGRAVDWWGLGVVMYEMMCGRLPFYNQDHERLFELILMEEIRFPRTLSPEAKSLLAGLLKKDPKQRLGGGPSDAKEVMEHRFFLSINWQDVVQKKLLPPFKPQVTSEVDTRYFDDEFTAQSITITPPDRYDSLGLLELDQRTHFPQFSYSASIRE

For `CCn1c(-c2nonc2N)nc2c(C#CC(C)(C)O)nc(OC(CN)c3ccccc3Cl)cc21` (centres unmarked) [Example 152, 4-[6-{[2-amino-1-(2-chlorophenyl)ethyl]oxy}-2-(4-amino-1,2,5-oxadiazol-3-yl)-1-ethyl-1H-imidazo[4,5-c]pyridin-4-yl]-2-methyl-3-butyn-2-ol], the IC50 at AKT2, on AKT3 and on AKT1 was at most 500 nM each time.
Consider `CCn1c(-c2nonc2N)nc2c(C#CC(C)(C)O)nc(OC(CN)c3cccc(OC)c3)cc21` (centres unmarked) [Example 132, 4-[6-({2-amino-1-[3-(methyloxy)phenyl]ethyl}oxy)-2-(4-amino-1,2,5-oxadiazol-3-yl)-1-ethyl-1H-imidazo[4,5-c]pyridin-4-yl]-2-methyl-3-butyn-2-ol], for which the IC50 on AKT2, at AKT3 and at AKT1 was at most 500 nM throughout.
Regarding `CCn1c(-c2nonc2N)nc2c(C#CC(C)(C)O)nc(OC(CN)c3cccc(Cl)c3)cc21` (centres unmarked) [Example 151, 4-[6-{[2-amino-1-(3-chlorophenyl)ethyl]oxy}-2-(4-amino-1,2,5-oxadiazol-3-yl)-1-ethyl-1H-imidazo[4,5-c]pyridin-4-yl]-2-methyl-3-butyn-2-ol], the IC50 on AKT2, at AKT3 and on AKT1 was at most 500 nM in each case.
For `CCn1c(-c2nonc2N)nc2c(C#CC(C)(C)O)nc(O[C@@H](CN)c3ccccc3)cc21` [Example 86, 4-(2-(4-amino-1,2,5-oxadiazol-3-yl)-6-{[(1R)-2-amino-1-phenylethyl]oxy}-1-ethyl-1H-imidazo[4,5-c]pyridin-4-yl)-2-methyl-3-butyn-2-ol], the half-inhibitory concentration (IC50) on AKT3 is at most 500 nM.
`CCn1c(-c2nonc2N)nc2c(C#CC(C)(C)O)nc(OC(CN)c3ccccc3)cc21` (centres unmarked) [Example 77, 4-{2-(4-amino-1,2,5-oxadiazol-3-yl)-6-[(2-amino-1-phenylethyl)oxy]-1-ethyl-1H-imidazo[4,5-c]pyridin-4-yl}-2-methyl-3-butyn-2-ol]: the IC50 at AKT3 is at most 500 nM.
Consider `CCn1c(-c2nonc2N)nc2c(C#CC(C)(C)O)nc(O[C@@H](CCN)c3ccccc3)cc21` [Example 108, 4-(2-(4-amino-1,2,5-oxadiazol-3-yl)-6-{[(1S)-3-amino-1-phenylpropyl]oxy}-1-ethyl-1H-imidazo[4,5-c]pyridin-4-yl)-2-methyl-3-butyn-2-ol], for which the IC50 at AKT3 was at most 500 nM.
In the case of `CCn1c(-c2nonc2N)nc2c(C#CC(C)(C)O)nc(OC(CN)c3cccc4c3OCO4)cc21` (racemic) [Example 92, 4-[6-{[2-amino-1-(1,3-benzodioxol-4-yl)ethyl]oxy}-2-(4-amino-1,2,5-oxadiazol-3-yl)-1-ethyl-1H-imidazo[4,5-c]pyridin-4-yl]-2-methyl-3-butyn-2-ol], the half-inhibitory concentration (IC50) on AKT2, on AKT3 and on AKT1 was at most 500 nM throughout.
As to `CCn1c(-c2nonc2N)nc2c(C#CC(C)(C)O)nc(OC[C@H](N)Cc3ccccc3Cl)cc21` [Example 143, 4-[6-{[(2R)-2-amino-3-(2-chlorophenyl)propyl]oxy}-2-(4-amino-1,2,5-oxadiazol-3-yl)-1-ethyl-1H-imidazo[4,5-c]pyridin-4-yl]-2-methyl-3-butyn-2-ol], the IC50 at AKT2, at AKT3 and on AKT1 was at most 500 nM in each case.
`CCn1c(-c2nonc2N)nc2c(C#CC(C)(C)O)nc(OC[C@H](N)Cc3ccccc3)cc21` [Example 43, 4-(2-(4-amino-1,2,5-oxadiazol-3-yl)-6-{[(2R)-2-amino-3-phenylpropyl]oxy}-1-ethyl-1H-imidazo[4,5-c]pyridin-4-yl)-2-methyl-3-butyn-2-ol]: the half-maximal inhibitory concentration (IC50) on AKT3 and at AKT1 was at most 500 nM in each case.
In the case of `CCn1c(-c2nonc2N)nc2c(C#CC(C)(C)O)nc(OC(CN)C3CCCCC3)cc21` (single isomer, unassigned) [Example 123, 4-[6-[(2-amino-1-cyclohexylethyl)oxy]-2-(4-amino-1,2,5-oxadiazol-3-yl)-1-ethyl-1H-imidazo[4,5-c]pyridin-4-yl]-2-methyl-3-butyn-2-ol], the IC50 on AKT2, on AKT3 and on AKT1 was at most 500 nM in each case.
In the case of `CCn1c(-c2nonc2N)nc2c(C#CC(C)(C)O)nc(OC(CN)Cc3ccccc3)cc21` (centres unmarked) [Example 106, 4-(2-(4-amino-1,2,5-oxadiazol-3-yl)-6-{[2-amino-1-(phenylmethyl)ethyl]oxy}-1-ethyl-1H-imidazo[4,5-c]pyridin-4-yl)-2-methyl-3-butyn-2-ol], the IC50 at AKT2, on AKT3 and on AKT1 was at most 500 nM in each case.
Consider `CCn1c(-c2nonc2N)nc2c(C#CC(C)(C)O)nc(OC(CN)c3cccc4c3OCO4)cc21` (single isomer, unassigned) [Example 93, 4-[6-{[2-amino-1-(1,3-benzodioxol-4-yl)ethyl]oxy}-2-(4-amino-1,2,5-oxadiazol-3-yl)-1-ethyl-1H-imidazo[4,5-c]pyridin-4-yl]-2-methyl-3-butyn-2-ol], for which the IC50 on AKT2, at AKT3 and on AKT1 was at most 500 nM in each case.
In the case of `CCn1c(-c2nonc2N)nc2c(C#CC(C)(C)O)nc(O[C@@H](c3ccccc3)[C@H]3CCCN3)cc21` [Example 117, 4-[2-(4-amino-1,2,5-oxadiazol-3-yl)-1-ethyl-6-([(S)-phenyl[(2R)-2-pyrrolidinyl]methyl]oxy)-1H-imidazo[4,5-c]pyridin-4-yl]-2-methyl-3-butyn-2-ol], the IC50 at AKT2, on AKT3 and on AKT1 was at most 500 nM in each case.

The term IC50 denotes the midpoint of a concentration-inhibition curve.
